Each structure is given as a SMILES string. Where a name gives a salt, the structure may show the parent alone.

Experimental findings from patent US20070027138A1 (priority 2000, published 2007) are described below.

In one data set the target is acetylcholinesterase (AChE), human recombinant (Homo sapiens, UniProt P22303). The experiment in a line: biochemical. The data set is classed as biochemical.
acetylcholinesterase (AChE), human recombinant, sequence (P22303 32-614): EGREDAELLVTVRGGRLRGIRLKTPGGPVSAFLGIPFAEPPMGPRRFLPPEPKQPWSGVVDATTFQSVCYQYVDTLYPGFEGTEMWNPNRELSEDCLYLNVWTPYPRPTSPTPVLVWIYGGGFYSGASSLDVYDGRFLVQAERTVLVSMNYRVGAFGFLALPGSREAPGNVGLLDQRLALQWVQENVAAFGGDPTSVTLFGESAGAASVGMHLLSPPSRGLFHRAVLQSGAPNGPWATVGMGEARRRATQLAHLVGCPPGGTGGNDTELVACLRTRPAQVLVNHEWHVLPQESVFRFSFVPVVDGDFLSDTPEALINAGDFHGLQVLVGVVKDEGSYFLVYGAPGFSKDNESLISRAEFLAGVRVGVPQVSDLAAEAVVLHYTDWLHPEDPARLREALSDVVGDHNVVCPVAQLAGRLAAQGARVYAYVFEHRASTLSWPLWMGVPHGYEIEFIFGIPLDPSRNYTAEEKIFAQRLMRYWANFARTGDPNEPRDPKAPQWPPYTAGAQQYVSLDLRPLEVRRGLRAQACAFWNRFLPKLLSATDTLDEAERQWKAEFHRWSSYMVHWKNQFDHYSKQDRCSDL
Settings: not given
For `COc1ccc2c3c1OC1CC(O)C=CC31CCN(CCCCN1C(=O)c3ccccc3S1(=O)=O)C2` (centres unmarked) [SPH-1369], the IC50 was determined as 0.022 µM.

Still in this data set, the particulars now being: human recombinant enzyme (hr); pre-incubation of the enzyme with inhibitor (mE); read-out: IC50 (AChE, mE, hr).
Turning to `COc1cc(C)c2c3c1OC1C[C@@H](O)C=CC31CCN(CCN1CCOCC1)C2` (some centres unmarked) [SPH-1202], the IC50 was 200 µM.
As for `COc1cc(C)c2c3c1OC1CC(O)C=CC31CCN(CCCN1CCCCC1)C2` (centres unmarked) [SPH-1298], the IC50 amounted to 200 µM.
Still for that read-out and setting: to `COc1cc(C)c2c3c1OC1CC(O)C=CC31CCN(C)C2` (centres unmarked) [SPH-1200] belongs 200 µM; to `COC(=O)C(=CN1CCC23C=CC(O)CC2Oc2c(OC)ccc(c23)C1)C(=O)OC` (centres unmarked) [SPH-1278], 100 µM; to `COc1cc(Br)c2c3c1OC1C[C@@H](O)C=CC31CCN(C(=O)NC(C)C)C2` (stereo partly drawn) [SPH-1208, (6R)-1-Bromo-6-hydroxy-N^11-isopropyl-3-methoxy-5,6,9,10-tetrahydro-4aH-[1]benzofuro[3a,3,2-ef][2]benzazepine-11(12H)-carboxylic acid amide], 200 µM.
For the compound `COc1ccc2c3c1OC1CC(O)C=CC31CN(C)CC2` (centres unmarked) [SPH-1263, (4aα,8aα)-4a,5,9,10,11-Hexahydro-3-methoxy-10-methyl-6H-benzofuro[3a,3,2-ef]-[3]benzazepin-6-ol], the IC50 stood at 200 µM.
Take `C=CCCC(=O)N1CCC23C=CC(O)CC2Oc2c(OC)ccc(c23)C1` (centres unmarked) [SPH-1326]: the IC50 turned out to be 8.4 µM.
Regarding `COc1ccc2c3c1OC1CC(O)C=CC31CCN(CCN)C2` (centres unmarked) [SPH-1311], the IC50 came out at 1.3 µM.
Take `COc1cc(N(C)C)c2c3c1O[C@H]1CC(O)C=CC31CCN(C)C2` (some centres unmarked) [SPH-1163]: the IC50 stood at 200 µM.
Consider `COc1ccc2c3c1OC1C[C@@H](O)C=CC31CCN(C(=O)Nc1ccccc1C(F)(F)F)C2` (some centres unmarked) [SPH-1266], for which the IC50 came to 30 µM.
`COc1ccc2c3c1OC1CC(O)C=CC31CCCC2N` (centres unmarked) [SPH-1309]: the half-maximal inhibitory concentration (IC50) came to 200 µM.
Consider `COc1ccc2c3c1OC1C[C@@H](O)C=CC31CCN(c1nc(OCCN)nc(OCCN)n1)C2` (stereo partly drawn) [SPH-1233, (6R)-11-(4,6-Bis-(2aminoethoxy)-1,3,5-triazine-2-yl)-3-methoxy-5,6,9,10,11,12-hexahydro-4aH-[1]benzofuro[3a,3,2-ef][2]benzazepin-6-ol], for which the IC50 was 200 µM.
Regarding `COC(=O)C1=CON2CCC34C=CC(O)CC3Oc3c(OC)ccc(c34)C12` (centres unmarked) [SPH-1332], the IC50 was found to be 200 µM.
Still for that read-out and setting: for `C=CCN1CCC23C=CC(O)CC2Oc2c(OC)cc(C)c(c23)C1` (centres unmarked) [SPH-1199] the value was 200 µM.
Turning to `COc1ccc2c3c1OC1CC(O)C=CC31CC[N+](C)(CC1CC1)C2` (single isomer, unassigned; (-)) [SPH-1146, (−) Cyclopropylmethylgalanthaminium bromide], the IC50 amounted to 1.2 µM.
Regarding `CCOC(=O)CCN1CCC23C=C[C@H](O)CC2Oc2c(OC)cc(Br)c(c23)C1` (stereo partly drawn) [SPH-1162, 3-((6R)-1-Bromo-6-hydroxy-3-methoxy-5,6,9,10-tetrahydro-4aH-[1]benzofuro[3a,3,2-ef][2]benzazepin-11(12H)-yl)propanoic acid ethyl ester], the IC50 came out at 200 µM.
As for `COc1ccc2c3c1OC1C[C@@H](O)C=CC31CCN(c1nc(Oc3ccccc3)nc(Oc3ccccc3)n1)C2` (stereo partly drawn) [SPH-1228, (6R)-11-(4,6-Diphenoxy-1,3,5-triazine-2-yl)-3-methoxy-5,6,9,10,11,12-hexahydro-4aH-[1]benzofuro[3a,3,2-ef][2]benzazepin-6-ol], the IC50 turned out to be 200 µM.
On to `COc1ccc2c3c1OC1CC(O)C=CC31CCN(CCC(=O)O)C2` (centres unmarked) [SPH-1276], for which the IC50 came out at 42 µM.
`COc1cc(C)c2c3c1OC1CC(O)C=CC31CCN(C)C2` (centres unmarked) [SPH-1204]: the IC50 stood at 200 µM.

Still in this data set, the particulars now being: last section of the table, own sub-head (r307); read-out: IC50 AChE.
Take `C=C(C)C[N+]1(C)CC[C@@]23C=C[C@H](O)C[C@@H]2Oc2c(OC)ccc(c23)C1` (some centres unmarked) [SPH-1193]: the IC50 is 1.5 µM.

The same data set, now with this note: read-out: IC50 (AChE, mE, hr); human recombinant enzyme (hr); pre-incubation of the enzyme with inhibitor (mE).
In the case of `COc1cc(Br)c2c3c1OC1C[C@@H](O)C=CC31CCN(CCC#N)C2` (stereo in doubt) [SPH-1210, 3-((6R)-1-Bromo-6-hydroxy-3-methoxy-5,6,9,10-tetrahydro-4aH-[I]benzofuro[3a,3,2-ef][2]benzazepine-11(12H)-yl)propanenitrile], the IC50 was 200 µM.

Test system in the next data set: not given
Experiment: not given
Settings: not given
`COc1ccc2c3c1O[C@H]1C[C@@H](O)C=C[C@@]31CCN1OC(OC(C)=O)C[C@@H]21` (some centres unmarked) displayed a melting point of 132 to 134 °C.
Regarding `COc1ccc2c3c1O[C@H]1C[C@@H](O)C=C[C@@]31CCN(CCCCCN1C(=O)c3cccc4cccc(c34)C1=O)C2` (as salt: fumarate), the melting point lay within 129 to 134 °C.
The compound `COc1ccc2c3c1O[C@H]1C[C@@H](O)C=C[C@@]31CCN(C)C2=O` showed a melting point of 251 to 255 °C.
On to `COc1ccc2c3c1O[C@H]1C[C@@H](O)C=C[C@@]31CCN1OC=C(C#N)[C@H]21`, for which the melting point was 137 to 139 °C.

The term IC50 denotes the midpoint of a concentration-inhibition curve. In general, melting point refers to the temperature, or range, at which the solid turns liquid.
